Converted amounts (≈) assume the structure as drawn.
What was measured:
[1] = Cytotoxicity index, ratio of EC50 for mouse J774 cells to EC50 for chloroquine, mefloquine, pyrimethamine and atovaquone-resistant Plasmodium falciparum TM90-C2B; assay type: cell-based; conditions: read-out: Ratio EC50
[2] = Permeability of the compound by PAMPA method at pH 7.4; assay type: ADME; conditions: read-out: permeability
[3] = system: Plasmodium falciparum; experiment: Resistance index, ratio of EC50 for chloroquine, mefloquine, pyrimethamine and atovaquone-resistant Plasmodium falciparum TM90-C2B to EC50 for chloroquine and pyrimethamine-resistant Plasmodium falciparum W2; assay type: functional
[4] = system: Plasmodium falciparum; experiment: Antimalarial activity against chloroquine, mefloquine, pyrimethamine and atovaquone-resistant Plasmodium falciparum TM90-C2B infected in human A positive erythrocytes after 72 hrs by SYBR Green I assay; assay type: functional, organism-based
[5] = system: Plasmodium falciparum; experiment: Antimalarial activity against chloroquine and pyrimethamine-resistant Plasmodium falciparum W2 infected in human A positive erythrocytes after 72 hrs by SYBR Green I assay; assay type: functional, organism-based; conditions: W2, 72 h
[6] = system: J774; experiment: Cytotoxicity against mouse J774 cells after 72 hrs by Cell titer 96 aqueous one solution cell proliferation assay; assay type: cell-based; conditions: J774, 72 h
[7] = Aqueous solubility of compound at pH 7.4 by HPLC analysis; conditions: buffer
[8] = Partition coefficient, log D of the compound at pH 7.4 by HPLC analysis; conditions: octanol/water

Structure (SMILES)	selectivity ratio [1]	Papp [2] [×10⁻⁶ cm/s]	Ratio EC50 [3]	EC50 [4] [nM]	EC50 [5] [nM]	EC50 [6] [nM]	solubility [7] [µM]	logD [8]
Oc1c2c(nc3ccc(Br)cc13)CCCC2	≥ 100	63	0.32	64.7	197	> 2000	2 (≈ 0.556 µg/mL)	2.1
Cc1ccc2c(=O)c3c([nH]c2c1)CCC(C)(C)C3	≥ 100	82	11.9	1980	166	> 40000	75 (≈ 18.1 µg/mL)	2.4
Cc1ccc2[nH]c3c(c(=O)c2c1)CC(C)(C)CC3	≥ 100	84	4.6	2180	474	> 40000	52 (≈ 12.5 µg/mL)	2.4
Cc1cccc2[nH]c3c(c(=O)c12)CC(C)(C)CC3	≥ 100	269	1.37	4130	3020	> 40000	45 (≈ 10.9 µg/mL)	2.7
CC1(C)CCc2[nH]c3c(Cl)cccc3c(=O)c2C1	≥ 100	427	1.01	4730	4670	> 20000	62 (≈ 16.2 µg/mL)	2.9
CC1(C)CCc2[nH]c3cc(Cl)ccc3c(=O)c2C1	≥ 100	62	3.45	829	240	> 40000	1 (≈ 0.262 µg/mL)	2.8
CC1(C)CCc2[nH]c3ccc(Cl)cc3c(=O)c2C1	≥ 100	63	0.46	118	256	> 40000	1 (≈ 0.262 µg/mL)	2.6
CC1(C)CCc2[nH]c3cccc(Cl)c3c(=O)c2C1	≥ 100	117	1.61	599	373	> 40000	23 (≈ 6.02 µg/mL)	2.4
CC1(C)CCc2c([nH]c3ccccc3c2=O)C1	≥ 100	43	0.18	335	1870	> 40000	64 (≈ 14.5 µg/mL)	1.9
COc1cccc2c(=O)c3c([nH]c12)CC(C)(C)CC3	≥ 100	114	0.38	2490	6540	> 20000	91 (≈ 23.4 µg/mL)	2.4
COc1cccc2[nH]c3c(c(=O)c12)CCC(C)(C)C3	≥ 100	43	<0.42	4100	> 9720	> 20000	64 (≈ 16.5 µg/mL)	1.7
Cc1cccc2c(=O)c3c([nH]c12)CC(C)(C)CC3	≥ 100	88	0.74	1750	2370	> 40000	60 (≈ 14.5 µg/mL)	2.3
Cc1ccc2c(=O)c3c([nH]c2c1)CC(C)(C)CC3	≥ 100	53	0.66	965	1460	> 10000	17 (≈ 4.1 µg/mL)	2.49
Cc1ccc2[nH]c3c(c(=O)c2c1)CCC(C)(C)C3	≥ 100	78	0.54	319	587	> 2000	4 (≈ 0.965 µg/mL)	2.4
CC1(C)CCc2c([nH]c3c(Cl)cccc3c2=O)C1	≥ 100	407	>1.42	> 9550	6700	> 20000	20 (≈ 5.24 µg/mL)	3
CC1(C)CCc2c([nH]c3ccc(Cl)cc3c2=O)C1	≥ 100	96	2.5	538	215	> 1000	2 (≈ 0.524 µg/mL)	2.7
CC1(C)CCc2c([nH]c3cccc(Cl)c3c2=O)C1	≥ 100	103	1.78	5330	2990	> 5000	6 (≈ 1.57 µg/mL)	2.5
O=c1c2c([nH]c3cc([N+](=O)[O-])ccc13)CCCC2	≥ 100	63	0.91	959	1050	> 2000	3 (≈ 0.733 µg/mL)	1.5

Structure (SMILES)	selectivity ratio [1]	Papp [2] [×10⁻⁶ cm/s]	Ratio EC50 [3]	EC50 [4] [nM]	EC50 [5] [nM]	EC50 [6] [nM]	solubility [7] [µM]	logD [8]
O=c1c2c([nH]c3ccc([N+](=O)[O-])cc13)CCCC2	≥ 100	6.9	0.12	379	3160	> 5000	8 (≈ 1.95 µg/mL)	1.5
O=c1c2c([nH]c3c(F)cccc13)CCCC2	≥ 100	17	5.43	2910	536	> 40000	109 (≈ 23.7 µg/mL)	1.5
O=c1c2c([nH]c3cc(F)ccc13)CCCC2	≥ 100	21	1.76	119	67.7	> 20000	46 (≈ 9.99 µg/mL)	1.7
O=c1c2c([nH]c3ccc(I)cc13)CCCC2	≥ 100	96	0.44	167	378	> 20000	4 (≈ 1.3 µg/mL)	2.3
O=c1c2c([nH]c3cc(Br)ccc13)CCCC2	≥ 100	70	1.48	115	77.7	> 10000	14 (≈ 3.89 µg/mL)	2.8
CC(C)(C)c1ccc2[nH]c3c(c(=O)c2c1)CCCC3	≥ 100	165	4.13	325	78.7	> 5000	5 (≈ 1.28 µg/mL)	2.8
CC(C)c1ccc2[nH]c3c(c(=O)c2c1)CCCC3	≥ 100	100	0.83	732	879	> 40000	30 (≈ 7.24 µg/mL)	2.2
CCOc1ccc2[nH]c3c(c(=O)c2c1)CCCC3	≥ 100	52	0.85	226	265	> 5000	5 (≈ 1.22 µg/mL)	1.9
CCOC(=O)c1ccc2[nH]c3c(c(=O)c2c1)CCCC3	≥ 100	63	0.38	58.3	153	> 5000	8 (≈ 2.17 µg/mL)	2.1
Cc1ccc(C)c2c(=O)c3c([nH]c12)CCCC3	≥ 100	263	0.78	2390	3070	> 20000	122 (≈ 27.7 µg/mL)	2.6
Cc1cc(C)c2[nH]c3c(c(=O)c2c1)CCCC3	≥ 100	58	0.72	768	1070	> 40000	108 (≈ 24.5 µg/mL)	2.2
Cc1ccc2c(=O)c3c([nH]c2c1C)CCCC3	≥ 100	42	0.58	2280	3920	> 5000	8 (≈ 1.82 µg/mL)	2.2
COc1cc(OC)c2[nH]c3c(c(=O)c2c1)CCCC3	≥ 100	51	<0.83	7980	> 9640	> 20000	152 (≈ 39.4 µg/mL)	1.9
COc1cc(OC)c2c(=O)c3c([nH]c2c1)CCCC3	≥ 100	13	<0.36	2590	> 7290	> 40000	188 (≈ 48.7 µg/mL)	1.4
COc1ccc2c(=O)c3c([nH]c2c1OC)CCCC3	≥ 100	19	0.55	3460	6340	> 20000	175 (≈ 45.4 µg/mL)	1.8
COc1cc2[nH]c3c(c(=O)c2cc1OC)CCCC3	≥ 100	1	0.38	3390	8970	> 20000	88 (≈ 22.8 µg/mL)	1.3
O=c1c2c([nH]c3cc(Cl)cc(Cl)c13)CCCC2	≥ 100	134	1.1	96.2	87.8	> 5000	8 (≈ 2.15 µg/mL)	2.5
O=c1c2c([nH]c3c(Cl)c(Cl)ccc13)CCCC2	≥ 100	348	>1.47	> 9330	6330	> 20000	41 (≈ 11 µg/mL)	2.9

Source: ChEMBL document CHEMBL1799910, “Optimization of 1,2,3,4-tetrahydroacridin-9(10H)-ones as antimalarials utilizing structure-activity and structure-property relationships” (J Med Chem, 2011)
